Laboratory results as given in patent US7294755B1 (priority 1997, dated 2007).
“And” between values parts separate entries of the source, which are not always exact repeats. Identical values can stand only once.

Legend:
[1] = test system: male germ cells of the testis; assay: Depopulating the recipient testis of male germ cells, histologic analysis; assay type: in vivo, C57BL/6J mice; conditions: two months after treatment
Method: Comparison of Depopulating Treatments. Eight-week-old C57BL/6J mice were allowed to acclimatize for a few days and then were assigned to one of the following three treatment groups. They received: (1) 400 Rad gamma irradiation; (2)4 μg/g body weight of busulfan (1,4-butanediol dimethanesulphonate; Myleran, Glaxo Wellcome); or (3) a combination treatment of busulfan (4 μg/g body wt) followed one week later by 400 Rad of gamma irradiation (“busulfan/400 Rad” treatment). A fourth group of untreated C57BL/6J mice of the same age as the treatment groups was used as a control. There were 24 mice in each treatment group, and 3 mice were sacrificed at each of the following time intervals after treatment: 5 hours, 24 hours, 48 hours, 72 hours, 1 week, 2 weeks, I month and 2 months after treatment. […]
Delivery of an Alkylating Agent to Recipient Vertebrates. The male mice receiving busulfan received a dose of 4 μg busulfan per g body wt. The busulfan was first dissolved 8 mg/mL in 100% dimethyl sulfoxide (DMSO) then, immediately before injection, was diluted 1:1 in phosphate buffered saline, pH 7.4. The mice were injected with the diluted busulfan solution intraperitoneally. Irradiation Treatment of Recipient Vertebrates. For the gamma irradiation treatment, mice were anesthetized with 0.017 mL/g body wt. of 2.5% Avertin. Gamma irradiation was specifically directed to the testis in the following manner. Each mouse was placed in a lead chamber with only the testis and lower abdomen exposed through elliptical holes to the irradiating source (^137Cs Gammacell 40 irradiator [Nordion]). There were six aligned holes in the floor and roof of the chamber through which the gamma radiation passed unobstructed. After irradiation the animals were allowed to recover from the anesthesia on a warm heating pad or water bed until they regained consciousness. Histology. At selected time points, mice from each treatment group were euthanized, and testicular tissues to be examined were fixed in 10% formalin in PBS, pH 7.4, at 4° C. for 24 hours. Small slits in the testis capsule were made to allow penetration of the fixative. Fixed samples were washed four times with PBS, and embedded in paraffin using a Tissue Tek-II tissue processor (MET). Sections of 8 μm thickness were cut, stained with haemotoxylin and eosin (H&E), and mounted with Aquamount (Lerner Laboratories) on glass slides with coverslips. The sections were viewed on a Zeiss or Olympic light microscope with a 40× objective lens (total magnification 400×). Quantitative Histologic Analysis. Quantitative data were collected from the testes of two animals for each of the treatment groups at two months after treatment. (Table 2). For the control group only one mouse was used. The seminiferous tubules in a single section were counted using a 5× objective on a Zeiss light microscope (50× total magnification). Individual seminiferous tubules were examined at 400× total magnification. Seminiferous tubules were considered severely damaged if hardly any cells remained in the tubule, and the tubule consisted of a basement membrane with a single layer of cells, mostly spermatogonia, lying along the basement membrane. Moderately damaged tubules were tubules, in which some of the spermatogenic layers close to the lumen were partially sloughed off. Spermatozoan heads were counted in the tubules and averaged over the total number of tubules counted. Results of Histological Analysis. Obvious histological changes were not seen in the testis until two weeks after treatment. (Data no shown). […] A few Sertoli cell nuclei and spermatogonia were detectable in the periphery along the basement membrane. […] Some spermatids and spermatozoa were seen as well as a few spermatocytes.

[2] = test system: testicular cells within the seminiferous tubules; assay: In vivo transduction of male germ cells using a viral vector (Example 14); set-up: species or system C57BL/6J mice; conditions: 4 μg/gm body wt IP, 44 days prior to viral infection
Source text: A retroviral vector was used to transduce (genetically alter or modify) male germ cells of mice in vivo. Specifically, a pseudo-typed HIV-derived viral vector (L. Naldini et al., In vivo gene delivery and stable transduction of nondividing cells by a Lentiviral vector, Science 272:263-67 [1996]), was used, as modified by Carlos Lois to express Green Flourescent Protein (GFP) instead of the LacZ reporter gene, under the transcriptional control of the CMV promoter (HR′GFP).
Recipient C57BL/6J mice were treated with busulfan 44 days prior to viral infection. C57BL/6J male mice were injected intraperitoneally with 0.1 ml busulfan at a concentration of 1 mg/ml. The dose was 4 μg busulfan/gm body wt. One pretreated mouse was anesthetized with Avertin (0.017 mls/gm body wt.), and a ventral midline incision was made and the right testis exposed.
The vas efferentia were dissected away from the fat, and ten microlitres of HIV-derived GFP vector, HR′GFP, at a titer of 1×10^9 particles/ml were injected into the seminiferous tubules of the right testis via the vas efferens of a busulfan-treated C57 BL/6J mouse. Injection was done with a quartz glass micropipette attached to a Picospritzer II. The Picospritzer was set at 80 psi and gave 1 second bursts upon manual depression of a foot pedal. […]

male germ cells = assay: In vivo transduction of male germ cells followed by natural matings, transgenic progeny by PCR and Southern blot; set-up: species or system C57/B1/6J mice; conditions: IP 4 μg/gm body wt before in vivo transduction
testis germ cells = assay: Busulfan depopulation of testis before microinjection (Example 15); assay type: in vivo, mice; conditions: IP 4 μg/g body wt.
Method: The method of delivery (Winston, R. M. L., Microsurgical reanastomosis of the rabbit oviduct and its functional and pathological sequelae, Brit. J. Obstet. Gynaecol. 82:513-522 ([1975]) of viral particles into a single vas efferens, and thence to the seminiferous tubules, was first optimized in several mice (FIGS. 1a-1d). The mice were treated with busulfan (Myleran: Glaxo Wellcome) 14 days before microsurgery to maximize the chance of viral particles gaining access to spermatogonia, which lie on the basement lamella of the tubules. Busulfan, an alkylating cytotoxic agent, depopulates the testis (Bucci, L. and Meistrich, M., Effects of busulfan on murine spermatogenesis: cytotoxicity, sterility, sperm abnormalities, and dominant lethal mutations, Mut. Res. 176:259-268 [1987]). […] This implies that stem cells remain viable and can repopulate the testis. Stem cell spermatogonia are known to be resistant to insults, often surviving when other germ cell types are destroyed (Huckins, C. & Oakberg, W. F., Morphological and quantitative analysis of spermatogonia in mouse testes using whole mounted seminiferous tubules. II. The irradiated testes, Anat. Rec. 192:529-42 [1978]).

[3] = test system: male germ cells in the testis; conditions: mice, cited from earlier work

## CS(=O)(=O)OCCCCOS(C)(=O)=O [Busulfan, 1,4-butanediol dimethanesulphonate]
[1]; in 50 tubules
  Total No. Sperm heads: 957 and 764
[1]
  Average No. sperm heads/tubule: 19 and 15
  depopulation of seminiferous tubules, comparison of treatment groups: damage to the spermatogenic process
[1]; one animal per line
  Moderately damaged tubules, percent of tubules counted: 7% and 3%
  No. Moderately damaged (seminiferous tubules): 5 and 2
  No. Severely damaged (seminiferous tubules): 1 (1%) and 3
  Severely damaged tubules, percent of tubules counted: 1 (1%) and 10%
[2]
  mature spermatozoa in testis: Very few mature spermatozoa were present
Male germ cells
  effect of pre-treatment on transduction of spermatogonia: enhanced the transduction of spermatogonia
Testis germ cells
  elimination of germ cells from the tubules: many of the spermatocytes, spermatids and spermatozoa were eliminated from the tubules
  recovery of testis and fertility: the testis recovered three to four months afterward and fertility was restored
[3]; 13 mg-40 mg/kg body wt.
  depletion of male germ cells: deplete male germs cells in the testis
[3]; doses over 30 mg/kg body weight
  duration of azoospermia after treatment: up to 56 days
